{"source": "patent US20040043940A1", "about": "“Use of ectoin or ectoin derivatives for protecting stress proteins in the skin” (priority 2000, published 2004)", "test_system": "HSP 72/73", "assay": "Heat-shock induction of HSP 72/73 stress proteins in primary human keratinocytes (immunofluorescence)", "format": "cell-based", "protocol": "This was ascertained by spreading primary human keratinocytes on microscopic slides and cultivating them over a period of 3 days at 37° C. in KGM 2 medium (Cell Systems). The human keratinocytes were incubated to a confluence of approximately 60% and part of the culture was then treated with 1% ectoin based on the supernatant of the culture medium. The untreated portion of the culture served as control. Following treatment, the human keratinocytes were incubated for a further 16 hours at 37° C. The cultures were then subjected to heat shock by raising the temperature quickly from 37° C. to 44° C. The experiments were carried out by the method proposed by Holland et al in J. Invest Dermatol. (1993), 101: 196-199. Following this heat-shock treatment, incubation was carried out at 37° C. for a further 2 hours. The cells were then fixed. Fixing was carried out in 3 stages:\nfixing solution A (1% CH3COOH/40% ethanol in deionized water v/v, 4° C.), 5 min,\nfixing solution B (96% ethanol in deionized water v/v, 4° C.), 5 min,\nfixing solution A, 5 min.\nThe stress proteins produced were stained by immunofluorescence, which process involved the following steps:\nblockage of non-specific bonding sites with a blocking agent (10% BSA in phosphate buffer): 45 min, 37° C.,\nincubation with the primary antibody anti HSP 72/73 (1:200 dilution in phosphate buffer): 45 min, 37° C.,\nincubation with the FITC-conjugated secondary antibody goat anti mouse (1:200 dilution in phosphate buffer): 45 min, 37° C.,\ncovering of the specimens with fluorescent covering medium and slide cover glasses.\nThe stess proteins were determined quantitatively as HSP 72/73 under a microscope (BX40, filter: WB, burner: U-RFL-T, Olympus)."}
{"compound": "CC1=N[C@H](C(=O)O)CCN1", "note": "[ectoin, (S)-1,4,5,6-tetrahydro-2-methyl-4-pyrimidinecarboxylic acid]", "values": [{"measurement": "protection of human skin cells against stress factors", "setting": "in vitro, ectoin-treated versus untreated skin cells", "result": "significantly better"}, {"measurement": "induction of HSP 72/73 stress proteins", "setting": "primary human keratinocytes, 1% ectoin pretreatment 16 hours, heat shock 37° C. to 44° C., compared with untreated cultures", "result": "significantly faster"}, {"measurement": "period until HSP 72/73 concentration maximum", "setting": "primary human keratinocytes, 1% ectoin pretreatment, heat shock 44° C., untreated cells 60 minutes", "result": 30, "unit": "min"}]}
